Laboratory results from paper PMC3591093, “De novo modeling of the F420-reducing [NiFe]-hydrogenase from a methanogenic archaeon by cryo-electron microscopy” (eLife, 2013).

How the values were obtained:
[1] = molecular target: T1, Frh complex (FrhABG), F420-reducing [NiFe]-hydrogenase (Methanothermobacter marburgensis, UniProt D9PYF6); assay: cryo-EM structure (map with versus without F420); format: binding; settings: 0.5, 1.0 or 10 mM F420, oxygen-free; site in FrhB next to FAD isoalloxazine; only the isoalloxazine-like ring modelled, weak density
T1 construct: gene frhB; FrhA C-terminus after His386 removed in maturation; FrhG most probably starts at Val39 of the 275-residue annotation; FrhA 45, FrhG 26, FrhB 31 kDa; with Coenzyme F420 hydrogenase subunit alpha; Coenzyme F420 hydrogenase subunit gamma
T1 sequence (D9PYF6 1-281): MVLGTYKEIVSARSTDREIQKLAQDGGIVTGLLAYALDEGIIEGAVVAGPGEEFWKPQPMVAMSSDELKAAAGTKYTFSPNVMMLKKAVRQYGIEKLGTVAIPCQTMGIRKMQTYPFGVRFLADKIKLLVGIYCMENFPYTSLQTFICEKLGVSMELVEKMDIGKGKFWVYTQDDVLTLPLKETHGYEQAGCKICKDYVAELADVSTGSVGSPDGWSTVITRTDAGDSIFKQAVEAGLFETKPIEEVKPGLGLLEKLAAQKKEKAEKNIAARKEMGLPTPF
T1 sequence (D9PYF9 1-386 partner): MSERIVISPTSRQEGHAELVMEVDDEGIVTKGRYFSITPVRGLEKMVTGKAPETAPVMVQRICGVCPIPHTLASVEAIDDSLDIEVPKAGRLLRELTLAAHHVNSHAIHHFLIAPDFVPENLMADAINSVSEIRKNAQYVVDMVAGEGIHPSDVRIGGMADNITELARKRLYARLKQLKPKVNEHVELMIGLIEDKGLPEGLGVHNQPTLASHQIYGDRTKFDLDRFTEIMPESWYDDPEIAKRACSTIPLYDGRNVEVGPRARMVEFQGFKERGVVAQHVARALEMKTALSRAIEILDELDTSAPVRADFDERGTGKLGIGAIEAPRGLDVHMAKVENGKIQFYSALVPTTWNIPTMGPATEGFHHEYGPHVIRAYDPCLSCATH
T1 sequence (D9PYF7 40-275 partner): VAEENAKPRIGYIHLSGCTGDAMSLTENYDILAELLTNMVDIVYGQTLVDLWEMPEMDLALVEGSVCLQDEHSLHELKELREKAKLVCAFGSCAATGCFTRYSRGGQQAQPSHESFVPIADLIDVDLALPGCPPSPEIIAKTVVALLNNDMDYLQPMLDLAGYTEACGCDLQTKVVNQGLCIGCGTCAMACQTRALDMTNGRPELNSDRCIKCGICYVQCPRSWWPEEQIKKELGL

[2] = molecular target: T1, Frh complex (FrhABG), F420-reducing [NiFe]-hydrogenase; assay: cryo-EM structure; format: binding; settings: 25 uM FAD in purification buffers; site in FrhB near the [4Fe-4S] cluster; ribose and ribitol density missing

| SMILES | cryo-EM structure (map with versus without F420) [1] | cryo-EM structure [2] |
| --- | --- | --- |
| C[C@H](OP(=O)(O)OC[C@@H](O)[C@@H](O)[C@@H](O)Cn1c2nc(=O)[nH]c(=O)c-2cc2ccc(O)cc21)C(=O)N[C@@H](CCC(=O)N[C@@H](CCC(=O)O)C(=O)O)C(=O)O [F420] | We conclude that it represents the isoalloxazine ring of the F420 substrate. |  |
| Cc1cc2nc3c(=O)[nH]c(=O)nc-3n(C[C@H](O)[C@H](O)[C@H](O)COP(=O)(O)OP(=O)(O)OC[C@H]3O[C@@H](n4cnc5c(N)ncnc54)[C@H](O)[C@@H]3O)c2cc1C [FAD] |  | could be interpreted as the isoalloxazine ring of the FAD cofactor |
